According to publication PMC11640089, “JRM-28, a Novel HDAC2 Inhibitor, Upregulates Plasticity-Associated Proteins in Hippocampal Neurons and Enhances Morphological Plasticity via Activation of CREB: Implications for Alzheimer’s Disease” (Cells, 2024):

Columns and labels:
[1] = test system: SHSY5Y cells; assay: TUNEL assay; type: cell-based, human; conditions: 24 h, in the presence of DTT
Experimental: To assess the effect of JRM-28 on apoptosis in SHS5Y cells, a total of 3 × 10^5 cells suspended in […] of complete neurobasal medium was distributed in each well of a poly-D-lysine-coated eight-well Chamber Slide. After 48 h, cells were treated with 2, 5, 10, 20, 30, and 50 μM of JRM-28 under serum-free conditions and then incubated for an additional 24 h. The TUNEL activity was measured by colorimetric microscopy as directed in the protocol described in DeadEnd™ Colorimetric TUNEL System (Promega, Madison, WI, USA). Hematoxylin staining was adopted to counterstain the slide.

[2] = biological target: T1, HDAC1 (Homo sapiens, UniProt Q13547); assay: Fluorimetric HDAC inhibition assay, HDAC1; type: biochemical; conditions: reduced with DTT
T1 construct: purchased BPS Bioscience 50051
T1 sequence (Q13547 whole entry): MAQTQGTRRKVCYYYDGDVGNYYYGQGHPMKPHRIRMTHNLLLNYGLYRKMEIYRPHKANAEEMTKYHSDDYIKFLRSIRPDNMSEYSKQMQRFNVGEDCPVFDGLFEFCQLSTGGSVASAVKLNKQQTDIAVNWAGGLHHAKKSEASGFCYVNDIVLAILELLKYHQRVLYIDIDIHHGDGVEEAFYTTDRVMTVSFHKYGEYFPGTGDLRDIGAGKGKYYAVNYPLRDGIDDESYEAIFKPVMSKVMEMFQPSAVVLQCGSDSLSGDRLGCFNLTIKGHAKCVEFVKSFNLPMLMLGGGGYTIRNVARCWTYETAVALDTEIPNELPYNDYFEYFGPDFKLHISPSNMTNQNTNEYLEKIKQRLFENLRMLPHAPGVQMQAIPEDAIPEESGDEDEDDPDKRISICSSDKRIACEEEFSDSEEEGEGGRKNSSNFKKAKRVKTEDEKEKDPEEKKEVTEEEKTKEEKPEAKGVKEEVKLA
Experimental: (§1) The inhibition of HDAC1, 2, 3, and 6 by JRM-28 was fluorometrically measured using the HDAC Fluorogenic Assay Kit (Catalog# 50034) by BPS bioscience. Purified recombinant human HDAC1 (Cat# 50051), HDAC3 (Cat# 50003), and HDAC6 (Cat# 50056) were also obtained from BPS Bioscience. The enzyme inhibition assay was performed according to the manufacturer’s protocol. […] Purified recombinant HDAC2 (supplied with the fluorogenic kit) was diluted to 6 ng/µL (5 µL/well with the supplied HDAC assay buffer). HDAC 1, 3, and 6 were also diluted to the optimized concentration (5 µL/well) with the HDAC assay buffer. The activity of JRM-28 was measured along with DTT control and DMSO as blank. After adding 5 µL of the diluted HDAC enzymes in designated wells, the 96-well plate (supplied with the kit) was incubated at 37 °C. Then, the reaction was initiated by adding 5 µL of diluted HDAC substrate to each well, followed by another incubation at 37 °C for 30 min. Next, 50 µL of the developer reagent was added to each well and incubated at room temperature for another 15 min. Finally, fluorescence was measured by a microplate absorbance spectrophotometer (PerkinElmer Enspire 2300 Multilabel Multimode Microplate Reader) with an excitation at λ = 485 nm and detection at λ = 528 nm.

[3] = test system: SHSY5Y cells; assay: Lactate dehydrogenase (LDH) release cytotoxicity assay; type: cell-based, human; conditions: 24 h
Experimental: Lactate dehydrogenase (LDH) cell cytotoxicity assay was performed per the manufacturer’s protocol. Briefly, SHSY5Y cells were grown in a 96-well plate with up to 70% confluency followed by treatment with increasing doses of JRM-28 under serum-free conditions. Serially diluted JRM-28 was used in a concentration range from 75 nM to 50 μM. As a control, serially diluted DMSO controls were added. After 24 h, supernatants were harvested by a multi-channel pipette and then assessed for LDH release with CyQUANT™ LDH Cytotoxicity Assay Kit. Briefly, 50 μL of supernatant was incubated with an equal volume of the working reaction mixture (generated after combining the 600 µL of assay buffer Stock Solution with the 11.4 mL of Substrate Stock substrate mix), incubated at room temperature for 30 min protected from light, terminated by 50 μL of stop solution, and then measured at 490 nm using a microplate absorbance spectrophotometer (Perkin Elmer Enspire 2300 Multilabel Multimode Microplate Reader). The percentage of cytotoxicity was determined following the formula provided with the LDH assay kit and then converted to relative cell cytotoxicity.

[4] = biological target: T2, HDAC3 (Homo sapiens, UniProt O15379); assay: Fluorimetric HDAC inhibition assay, HDAC3; type: biochemical; conditions: reduced with DTT
T2 construct: purchased BPS Bioscience 50003
T2 sequence (O15379 whole entry): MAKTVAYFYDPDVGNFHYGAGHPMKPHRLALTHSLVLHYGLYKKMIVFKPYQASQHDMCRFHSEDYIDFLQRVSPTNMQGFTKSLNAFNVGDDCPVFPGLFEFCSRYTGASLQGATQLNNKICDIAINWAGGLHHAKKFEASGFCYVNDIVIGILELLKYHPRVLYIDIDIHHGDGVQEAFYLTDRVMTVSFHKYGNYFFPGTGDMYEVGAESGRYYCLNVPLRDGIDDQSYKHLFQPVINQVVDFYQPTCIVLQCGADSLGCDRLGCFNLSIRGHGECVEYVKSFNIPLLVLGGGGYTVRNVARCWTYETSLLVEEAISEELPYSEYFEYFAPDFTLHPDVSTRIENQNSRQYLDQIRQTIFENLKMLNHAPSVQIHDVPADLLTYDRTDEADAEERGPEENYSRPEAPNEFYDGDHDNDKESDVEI
T2 sequence (Q9Y618 395-489 partner limits assumed): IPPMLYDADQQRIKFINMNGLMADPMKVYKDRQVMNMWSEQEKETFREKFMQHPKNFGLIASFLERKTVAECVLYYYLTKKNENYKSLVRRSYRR
Experimental: as §1

[5] = test system: HDAC2; assay: HDAC2 immunoblot and immunofluorescence in SHSY5Y cells; type: cell-based, human
Experimental: (§2) Immunofluorescence analysis was performed as described earlier. Briefly, cells cultured on coverslip contained in six-well plates (Lab-Tek II) were fixed with 4% paraformaldehyde for 20 min followed by two rinses in TBST. Samples were incubated in a 1:1 solution of TBST and blocking buffer containing rabbit anti-NR2A (1:250), anti-GluR1 (1:250), ant-HDAC2 (1:250), anti-CREB (1:250), and anti-MAP2 (1:250) for 2 h at 37 °C. After three washes in PBST (15 min each), slides were further incubated with FIT-C and TRIT-C-conjugated secondary antibodies. For negative controls, a set of culture slides was incubated under similar conditions with secondary antibodies and without the primary antibodies (Table 3). The samples were mounted and observed under an Accuscope fluorescent microscope. The images were captured and merged in CaptaVision^TM imaging software.
Immunoblot analysis was carried out as described earlier. Briefly, SHSY5Y neuronal cell homogenates were electrophoresed by 4–12% Tris-Glycine gradient gel, proteins were transferred onto a 0.45 μm nitrocellulose membrane, and the protein band was visualized with Odyssey Sa infrared scanner after immunolabeling with primary antibodies followed by infrared fluorophore-tagged secondary antibody (Licor Biosciences, Lincoln, NE, USA).

[6] = test system: NR2A and GluR1; assay: NR2A and GluR1 immunofluorescence in E18 mouse hippocampal neurons; type: cell-based; conditions: 5 µM
Experimental: as §2

IC50 [2]: 0.351 µM | Hill coefficient HDAC1 (fluorimetric) ([2]; listed as JRM-28 (JRM-28a+28b)): −4.582 | IC50 [4]: 0.279 µM | Hill coefficient HDAC3 (fluorimetric) ([4]; listed as JRM-28 (JRM-28a+28b)): −4.663
SMILES: CN(C(=O)CC(O)/C=C/CCSS(=O)(=O)CC/C=C/C(O)CC(=O)N(C)c1ccccc1)c1ccccc1 (stereo not drawn) [JRM-28, S-((E)-5-hydroxy-7-(methyl(phenyl)amino)-7-oxohept-3-en-1-yl) (E)-5-hydroxy-7-(methyl(phenyl)amino)-7-oxohept-3-ene-1-sulfonothioate]
TUNEL cytotoxicity ([1]; 20 µM): caused nuclear condensation | TUNEL cytotoxicity ([1]; 30 µM): induced significant cell death | TUNEL cytotoxicity ([1]; 50 µM): induced significant cell death | TUNEL cytotoxicity ([1]; lower doses up to 10 µM): did not induce any cell death | LDH release ([3]; 30 µM and 50 µM): significantly induced LDH release | LDH release ([3]; concentrations lower than 30 µM): but not lower concentrations of JRM-28, significantly induced LDH release | nuclear translocation of HDAC2 (immunocytochemistry) ([5]; 5 µM): significantly arrested the nuclear translocation of HDAC2 | HDAC2 expression in nuclei (dual IF with CREB) ([5]; 5 µM, SHSY5Y cells): significantly attenuated the expression of HDAC2 in the nuclei | HDAC2 expression (immunoblot) ([5]; 2, 5, and 10 µM, 24 h, versus control): did not upregulate the expression of HDAC2 | expressions of NR2A and GluR1 (IF, MFI) [6]: upregulated
